According to patent US10449258B2, “Antibody drug conjugate, intermediate, preparation method, pharmaceutical composition and uses thereof” (XDCEXPLORER (SHANGHAI) CO., LTD., priority 2015, dated 2019):
Read-outs that look alike come from different tables or passages of the source.

Experiments:
[1] = test system: Her2 low expression human MCF-7 breast tumor cells; assay: Cytotoxicity assay (growth inhibition, CellTiter-Glo) on MCF-7
Experimental: (§1) Her2-positive human BT474 breast tumor cells (BT474 for short), Her2 low expression human MCF-7 breast tumor cells (MCF-7 for short), and human breast tumor cell strain MCF7-Her2 with stable-transfected Her2 outside MCF-7 (MCF-7-Her2 for short) were used (they were prepared by the methods disclosed in the literatures for preparing recombinant cells: Teemu T. Junttila, et al., Breast. Cancer Res. Treat., 2011, 128, 347 and Jeffrey J. Wallin et al., Clin. Cancer Res., 2012, 18, 3901, the contents of which are incorporated herein by reference in their entireties). The growth inhibition of tumor cells by T-CE-040 and T-CE-063 antibody drug conjugates were evaluated. BT474, MCF7-Her2 and MCF-7 were digested with 0.25% (v/v) trypsin and the cells were stripped and then suspended in 100 μL complete medium. 2,000 cells were inoculated in a 96-well plate and cultured, grew adherently overnight at 37° C., then 100 μL T-CE-040 and T-CE-063 antibody drug conjugates with different concentration gradients and the complete medium were added. After 120 hours, relative cell proliferation analysis was performed by adding 50 μL CellTiter-Glo® […] Cell Activation Reagent (CellTiter-GloB Luminescent, Promega).

[2] = test system: Her2-positive human BT474 breast tumor cells; assay: Cytotoxicity assay (growth inhibition, CellTiter-Glo) on BT474
Experimental: as §1

[3] = test system: human breast tumor cell strain MCF7-Her2 with stable-transfected Her2; assay: Cytotoxicity assay (growth inhibition, CellTiter-Glo) on MCF7-Her2
Experimental: as §1

[4] = Homo sapiens, MCF7, 120 h, read-out: Cytotoxicity assay IC50 MCF7, MCF-7 cells, 120 hours, CellTiter-Glo
[5] = Homo sapiens, BT-474, 120 h, read-out: Cytotoxicity assay IC50 BT474, BT474 cells, 120 hours, CellTiter-Glo
[6] = Homo sapiens, 120 h, read-out: Cytotoxicity assay IC50 MCF-Her2, MCF7-Her2 cells, 120 hours, CellTiter-Glo
[7] = read-out: Cytotoxicity assay IC50 MCF7, MCF-7 cells, 120 hours, CellTiter-Glo
[8] = read-out: Cytotoxicity assay IC50 BT474, BT474 cells, 120 hours, CellTiter-Glo
[9] = read-out: Cytotoxicity assay IC50 MCF-Her2, MCF7-Her2 cells, 120 hours, CellTiter-Glo

Compound | IC50 [1, 4] | IC50 [2, 5] | IC50 [3, 6] | also measured
COc1cc2cc(c1Cl)N(C)C(=O)C[C@H](OC(=O)[C@H](C)OCCOCCSC1CC(=O)N(C[C@H]3CC[C@H](C(=O)ON4C(=O)CCC4=O)CC3)C1=O)[C@]1(C)O[C@H]1[C@H](C)C1C[C@@](O)(NC(=O)O1)[C@H](OC)/C=C/C=C(\C)C2 (stereo partly drawn) [CE-034] | 14.1 nM | 19.9 nM | 14.2 nM | 
COc1cc2cc(c1Cl)N(C)C(=O)C[C@H](OC(=O)[C@@H](C)N(C)C(=O)CCSSC)C1(C)O[C@H]1[C@H](C)C1C[C@@](O)(NC(=O)O1)[C@H](OC)/C=C/C=C(\C)C2 (stereo partly drawn) [DM1-SMe, reference compound] |  |  |  | IC50 ([1]; Homo sapiens, MCF7, 120 h, read-out: Cytotoxicity assay IC50 MCF7): 9.5 nM; IC50 ([2]; Homo sapiens, BT-474, 120 h, read-out: Cytotoxicity assay IC50 BT474): 9.3 nM; IC50 ([3]; Homo sapiens, 120 h, read-out: Cytotoxicity assay IC50 MCF-Her2): 7.3 nM
COc1cc2cc(c1Cl)N(C)C(=O)C[C@H](OC(=O)[C@@H](C)N(C)C(=O)CCS)C1(C)O[C@H]1[C@H](C)C1C[C@@](O)(NC(=O)O1)[C@H](OC)/C=C/C=C(\C)C2 (stereo partly drawn) [DM1, N2′-deacetyl-N2′-(3-mercapto-1-oxopropyl)maytansine, reference compound] | 16 nM | 21 nM | 14 nM | 
COCC(CCC(=O)N(C)[C@H](C)C(=O)OC1CC(=O)N(C)c2cc(cc(OC)c2Cl)C/C(C)=C/C=C/[C@@H](OC)[C@@]2(O)C[C@H](OC(=O)N2)[C@@H](C)[C@@H]2O[C@@]12C)(COC)SSC (stereo partly drawn) [CE-016] | 67.7 nM | 23.4 nM | 42.7 nM | 
COc1cc2cc(c1Cl)N(C)C(=O)C[C@H](OC(=O)[C@H](C)OCCCSSC)[C@]1(C)O[C@H]1[C@H](C)[C@@H]1C[C@@](O)(NC(=O)O1)[C@H](OC)/C=C/C=C(\C)C2 [CE-027] | 39 nM | 15 nM | 23 nM | 
COc1cc2cc(c1Cl)N(C)C(=O)C[C@H](OC(=O)C(COCCCSSC)OC)[C@]1(C)O[C@H]1[C@H](C)C1C[C@@](O)(NC(=O)O1)[C@H](OC)/C=C/C=C(\C)C2 (single isomer, unassigned) [CE-055-1] |  |  |  | IC50 [1, 7]: 6 nM; IC50 [2, 8]: 8 nM; IC50 [3, 9]: 3 nM
COCC(S)(CCC(=O)N(C)[C@@H](C)C(=O)OC1CC(=O)N(C)c2cc(cc(OC)c2Cl)C/C(C)=C/C=C/[C@@H](OC)[C@@]2(O)C[C@H](OC(=O)N2)[C@@H](C)[C@@H]2O[C@@]12C)COC (stereo partly drawn) [CE-024] | 23.1 nM | 20.1 nM | 50 nM | 
COc1cc2cc(c1Cl)N(C)C(=O)C[C@H](OC(=O)[C@H](C)N(C)C(CCSC1CC(=O)N(C[C@H]3CC[C@H](C(=O)ON4C(=O)CCC4=O)CC3)C1=O)C(F)(F)F)[C@]1(C)O[C@H]1[C@H](C)C1C[C@@](O)(NC(=O)O1)[C@H](OC)/C=C/C=C(\C)C2 (stereo partly drawn) [CE-038] | 873 nM | 163 nM | 425 nM | 
COc1cc2cc(c1Cl)N(C)C(=O)C[C@H](OC(=O)[C@H](C)OCCOCCSC1CC(=O)N(CCC(=O)NCCOCCOCCOCCC(=O)ON3C(=O)CCC3=O)C1=O)[C@]1(C)O[C@H]1[C@H](C)C1C[C@@](O)(NC(=O)O1)[C@H](OC)/C=C/C=C(\C)C2 (stereo partly drawn) [XDCE-M-002] | 51.5 nM | 41.6 nM | 64.3 nM | 
COc1cc2cc(c1Cl)N(C)C(=O)CC(OC(=O)[C@H](C)N(C)C(CCSSCCCC(=O)ON1C(=O)CCC1=O)C(F)(F)F)[C@]1(C)O[C@H]1[C@H](C)[C@@H]1C[C@@](O)(NC(=O)O1)[C@H](OC)/C=C/C=C(\C)C2 (stereo partly drawn) [CE-041] | 185 nM | 68.3 nM | 126 nM | 
COCC(CCC(=O)N(C)[C@@H](C)C(=O)OC1CC(=O)N(C)c2cc(cc(OC)c2Cl)C/C(C)=C/C=C/[C@@H](OC)[C@@]2(O)C[C@H](OC(=O)N2)[C@@H](C)[C@@H]2O[C@@]12C)(COC)SSC (stereo partly drawn) [CE-017] | 8.9 nM | 14 nM | 3.1 nM | 
COc1cc2cc(c1Cl)N(C)C(=O)C[C@H](OC(=O)[C@H](C)OCCOCCSC1CC(=O)N(CCC(=O)NCCOCCOCCC(=O)ON3C(=O)CCC3=O)C1=O)[C@]1(C)O[C@H]1[C@H](C)C1C[C@@](O)(NC(=O)O1)[C@H](OC)/C=C/C=C(\C)C2 (stereo partly drawn) [XDCE-M-001] | 330 nM | 456 nM | 182 nM | 
COc1cc2cc(c1Cl)N(C)C(=O)C[C@H](OC(=O)C(COCCCSSC)OC)[C@]1(C)O[C@H]1[C@H](C)C1C[C@@](O)(NC(=O)O1)[C@H](OC)/C=C/C=C(\C)C2 (single isomer, unassigned) [CE-054-1] | 7 nM | 10 nM | 3.4 nM | 
COCC(C)(CCC(=O)N(C)[C@H](C)C(=O)OC1CC(=O)N(C)c2cc(cc(OC)c2Cl)C/C(C)=C/C=C/[C@@H](OC)[C@@]2(O)C[C@H](OC(=O)N2)[C@@H](C)[C@@H]2O[C@@]12C)SSC (stereo partly drawn) [CE-012] | 65.8 nM | 16.4 nM | 133 nM | 
COc1cc2cc(c1Cl)N(C)C(=O)CC(OC(=O)[C@H](C)N(C)C(=O)CCC(SSC)C(C)C)[C@]1(C)O[C@H]1[C@H](C)[C@@H]1C[C@@](O)(NC(=O)O1)[C@H](OC)/C=C/C=C(\C)C2 (stereo partly drawn) [CE-022] | 10 nM | 13 nM | 6 nM | 
COc1cc2cc(c1Cl)N(C)C(=O)C[C@H](OC(=O)[C@H](C)OCCOCCOCCOCCOCCOCCNC(=O)CBr)[C@]1(C)O[C@H]1[C@H](C)C1C[C@@](O)(NC(=O)O1)[C@H](OC)/C=C/C=C(\C)C2 [CE-052a] | 18.4 nM | 33.1 nM | 9.8 nM | 
COc1cc2cc(c1Cl)N(C)C(=O)C[C@H](OC(=O)[C@H](C)OCCOCCOCCNC(=O)CBr)[C@]1(C)O[C@H]1[C@H](C)C1C[C@@](O)(NC(=O)O1)[C@H](OC)/C=C/C=C(\C)C2 [CE-050] | 14.4 nM | 26.1 nM | 7 nM | 
COc1cc2cc(c1Cl)N(C)C(=O)C[C@H](OC(=O)[C@H](C)OCCOCCOCCN1C(=O)C=CC1=O)[C@]1(C)O[C@H]1[C@H](C)C1C[C@@](O)(NC(=O)O1)[C@H](OC)/C=C/C=C(\C)C2 [CE-047] | 327 nM | 325 nM | 134 nM | 
COc1cc2cc(c1Cl)N(C)C(=O)C[C@H](OC(=O)[C@H](C)OCCSC1CC(=O)N(C[C@H]3CC[C@H](C(=O)ON4C(=O)CCC4=O)CC3)C1=O)[C@]1(C)O[C@H]1[C@H](C)C1C[C@@](O)(NC(=O)O1)[C@H](OC)/C=C/C=C(\C)C2 (stereo partly drawn) [CE-037] | 136 nM | 49.3 nM | 70.6 nM | 
COc1cc2cc(c1Cl)N(C)C(=O)C[C@H](OC(=O)[C@H]1CC[C@H](CSC3CC(=O)N(C[C@H]4CC[C@H](C(=O)ON5C(=O)CCC5=O)CC4)C3=O)CC1)[C@]1(C)O[C@H]1[C@H](C)C1C[C@@](O)(NC(=O)O1)[C@H](OC)/C=C/C=C(\C)C2 (stereo partly drawn) [CE-036] | 13.1 nM | 8.05 nM | 6.9 nM | 
COCC(C)(CCC(=O)N(C)[C@H](C)C(=O)OC1CC(=O)N(C)c2cc(cc(OC)c2Cl)C/C(C)=C/C=C/[C@@H](OC)[C@@]2(O)C[C@H](OC(=O)N2)[C@@H](C)[C@@H]2O[C@@]12C)SSC (stereo partly drawn) [CE-014] | 127 nM | 19.6 nM | 68.8 nM | 
COCC(C)(CCC(=O)N(C)[C@@H](C)C(=O)O[C@H]1CC(=O)N(C)c2cc(cc(OC)c2Cl)C/C(C)=C/C=C/[C@@H](OC)[C@@]2(O)C[C@H](OC(=O)N2)[C@@H](C)[C@@H]2O[C@@]12C)SSC (stereo partly drawn) [CE-015] |  |  |  | IC50 [1, 7]: 3 nM; IC50 [2, 8]: 6.3 nM; IC50 [3, 9]: 7.1 nM
COc1cc2cc(c1Cl)N(C)C(=O)C[C@H](OC(=O)[C@H](C)OCCSSC)[C@]1(C)O[C@H]1[C@H](C)[C@@H]1C[C@@](O)(NC(=O)O1)[C@H](OC)/C=C/C=C(\C)C2 [CE-026] | 41 nM | 14 nM | 17 nM | 
